From patent US6867320B2, “Substituted phenylalkanoic acid derivatives and use thereof” (Asahi Kasei Pharma Corporation, priority 2002, dated 2005)

What was measured:
[1] = test system: zymosan-stimulated footpad edema; test: Mouse zymosan-stimulated footpad edema reaction; format: in vivo; details: ICR female mice, oral 0.1 to 500 mg/kg, compared with positive control group
Description: 3. Suppressing Effect on Mouse Zymosan-stimulated Footpad Edema Reaction A suppressing effect on footpad edema caused by zymosan as an inflammatory stimulant was studied by the following method. Groups of ICR female mice (6- to 7-week old) each consisting of eight mice were used for the test. A test compound was suspended or dissolved in purified water containing 0.5% methylcellulose and orally administered to the test animals at 0.1 to 500 mg/0.2 ml/kg. To the control group, purified water containing 0.5% methylcellulose was administered in a similar manner, which was not added with a test compound. One hour after the administration of the test compound, 0.02 ml of a suspension of zymosan suspended in physiological saline (Otsuka Pharmaceutical) at 1 mg/ml was subcutaneously administered to right hind leg footpad of each mouse. One and two hours after the administration of the zymosan suspension, volume of the right hind leg footpad was measured by using an apparatus for measuring a volume of mouse hind leg footpad edema (Unicom). A difference of the volume of footpad measured above and the footpad volume before the administration of the test compound measured beforehand was regarded as a volume of the edema. For the volume of the edema at 1 hour or 2 hours after the zymosan administration, a graph was prepared by indicating time in abscissa and the edema volume in ordinate, and an edema volume AUC (area under the curve) was obtained up to 2 hours by calculation using the following equation. Edema volume AUC (1·hour)=1/2×1×A+1×(A+B)/2 • A: Edema volume 1 hour after zymosan administration • B: Edema volume 2 hour after zymosan administration A suppression ratio on edema of test compound was obtained by calculation using the following equation. Edema suppression ratio (%)=[1−B/A]×100 • A: Edema volume AUC of positive control • B: Edema volume AUC of test compound administered group (2) Measurement Results

[2] = test system: PGE2 production from IL-1β-stimulated MG-63 cells; test: Suppressing action on PGE2 production from IL-1β-stimulated MG-63 cells; format: cell-based; details: Homo sapiens, IL-1β 1 ng/ml, 18 hours, read-out: PGE2 production suppression ratio
From the text: 1. Suppressing Action on PGE2 Production from IL-1β-Stimulated MG-63 Cells (1) Method for Measurement
An action of suppressing PGE2 production caused by interleukin (IL) 1β as an inflammatory stimulant was studied by the following method. Cells of MG-63, which is a human osteosarcoma cell line (purchased from Dainippon Pharmaceutical), were suspended in EMEM medium (GIBCO) containing 10% fetal bovine serum (BioFluid), and then inoculated to each well of 96-well culture plate at a density of 2×10^4 cells/well and cultured overnight. The medium was changed to EMEM medium containing 0.5% fetal bovine serum, and then a test compound was added with each well. Human interleukin-1β (ENDOGEN) was further added as an inflammatory stimulant at a final concentration of 1 ng/ml. The cells were further cultured for 18 hours. The culture supernatant was collected, and the PGE2 concentration in the culture supernatant was measured by using EIA kit (CAYMAN). By using a well which was not added with the stimulant as a negative control and a well which was added only with the stimulant as a positive control, suppression ratios on PGE2 production were calculated from produced amounts of PGE2 in the well added with the test compound using the following equation. PGE2 production suppression ratio=[1−(C−B)/(A−B)]×100 • A: PGE2 production amount of positive control • B: PGE2 production amount of negative control • C: PGE2 production amount in well added with test compound

Molecule | suppression of footpad edema caused by zymosan [1] | inhibition at 0.4 µM [2] [%]
3-(3-{6-[(2-aminoacetyl)amino]Naphthalen-2-yl}-4-cyclopentyl-methyloxyphenyl)propionic acid [Compound 078] | suppressed footpad edema | –
3-[4-isopropyloxy-3-(1H-indol-5-yl)phenyl]propionate [Compound 173] | suppressed footpad edema | –
O=C(O)CCc1ccc(OCCc2ccccc2F)c(-c2ccc3cc(O)ccc3c2)c1 [Compound 006, 3-{4-[2-(2-fluorophenyl)ethyloxy]-3-(6-hydroxynaphthalen-2-yl)phenyl}propionic acid] | suppressed footpad edema | ≥ 50
O=C(O)CCc1ccc(OCc2ccccc2F)c(-c2ccc3ccccc3c2)c1 [Compound 031, 3-[4-(2-fluorophenylmethyloxy)-3-(naphthalen-2-yl)phenyl]propionic acid] | suppressed footpad edema | ≥ 50
O=C(O)CCc1ccc(OCC2CCCC2)c(-c2ccc3cc(NC(=O)CO)ccc3c2)c1 [Compound 079, 3-(4-cyclopentylmethyloxy-3-{6-[2-(hydroxyacetyl)amino]naphthalen-2-yl}phenyl)propionic acid] | suppressed footpad edema | –
O=C(O)CCc1ccc(OCCc2ccccc2F)c(-c2ccc3[nH]ccc3c2)c1 [Compound 106, 3-{4-[2-(2-fluorophenyl)ethyloxy]-3-(1H-indol-5-yl)phenyl}propionic acid] | suppressed footpad edema | ≥ 50
O=C(O)CCc1ccc(OCC2CCCC2)c(-c2cccc3[nH]ccc23)c1 [Compound 114, 3-[4-cyclopentylmethyloxy-3-(1H-indol-4-yl)phenyl]propionic acid] | suppressed footpad edema | ≥ 50
O=C(O)CCc1ccc(OCc2c(Cl)cccc2Cl)c(-c2ccc3[nH]ccc3c2)c1 [Compound 164, 3-[4-(2,6-dichlorophenylmethyloxy)-3-(1H-indol-5-yl)phenyl]propionic acid] | suppressed footpad edema | ≥ 50
COc1ccc(CCOc2ccc(CCC(=O)O)cc2-c2ccc3[nH]ccc3c2)cc1 [Compound 207, 3-{3-(1H-indol-5-yl)-4-[2-(4-methoxyphenyl)ethyloxy]phenyl}propionic acid] | suppressed footpad edema | ≥ 50
CN(C)c1ccc(CCOc2ccc(CCC(=O)O)cc2-c2ccc3[nH]ccc3c2)cc1 [Compound 215, 3-(4-{2-[4-(N,N-dimethylamino)phenyl]Ethyloxy}-3-[1H-indol-5-yl]phenyl)propionic acid] | suppressed footpad edema | ≥ 50
O=C(O)CCc1ccc(OCCOc2ccccc2)c(-c2ccc3[nH]ccc3c2)c1 [Compound 222, 3-{3-(1H-indol-5-yl)-4-[2-(phenyloxy)ethyloxy]phenyl}propionic acid] | suppressed footpad edema | ≥ 50
O=C(O)CCc1ccc(OCCOc2ccccc2Cl)c(-c2ccc3[nH]ccc3c2)c1 [Compound 224, 3-{4-[2-(2-chlorophenyloxy)ethyloxy]-3-(1H-indol-5-yl)phenyl}propionic acid] | suppressed footpad edema | ≥ 50
CCCCOc1ccc(CCC(=O)O)cc1-c1ccc2nc(N)sc2c1 [Compound 291, 3-[3-(2-aminobenzothiazol-6-yl)-4-butyloxyphenyl]propionic acid] | suppressed footpad edema | ≥ 50
O=C(O)CCc1ccc(OCC2CCCCC2)c(-c2ccc3ncccc3c2)c1 [Compound 319, 3-[4-cyclohexylmethyloxy-3-(quinolin-6-yl)phenyl]propionic acid] | – | ≥ 50
O=C(O)CCc1ccc(OCC2CCCCC2)c(-c2ccc3[nH]c(=O)ccc3c2)c1 [Compound 321, 3-[4-cyclohexylmethyloxy-3-(2-oxo-1,2-dihydroquinolin-6-yl)-phenyl]propionic acid] | – | ≥ 50
O=C(O)CCc1ccc(OCc2ccccc2)c(-c2ccc3ccccc3c2)c1 [Compound 323, 3-[4-benzyloxy-3-(naphthalen-2-yl)phenyl]propionic acid] | – | ≥ 50

Molecule | suppression of footpad edema caused by zymosan [1] | inhibition at 0.4 µM [2] [%]
CC(C)(C)c1ccc(COc2ccc(CCC(=O)O)cc2-c2ccc3[nH]ccc3c2)cc1 [Compound 327, 3-[4-(4-t-butylphenylmethyloxy)-3-(1H-indol-5-yl)phenyl]propionic acid] | – | ≥ 50
CC(C)(C)c1ccc(COc2ccc(CCC(=O)O)cc2-c2ccc3[nH]ccc3c2)cc1 [Compound 329] | suppressed footpad edema | –
O=C(O)CCc1ccc(OC2CCCCC2)c(-c2ccc3ncsc3c2)c1 [Compound 330, 3-[3-(benzothiazol-6-yl)-4-cyclohexyloxyphenyl]propionic acid] | – | ≥ 50
COC(=O)CCc1cc(-c2ccc3ccccc3c2)c(OC2CCCC2)c([N+](=O)[O-])c1 [Compound 331, methyl 3-[4-cyclopentyloxy-3-(naphthalen-2-yl)-5-nitrophenyl]propionate] | – | ≥ 50
Nc1cc(CCC(=O)O)cc(-c2ccc3ccccc3c2)c1OC1CCCC1 [Compound 333, 3-[3-amino-4-cyclopentyloxy-5-(naphthalen-2-yl)phenyl]propionic acid] | – | ≥ 50
O=C(O)CCc1cc(O)c(OCC2CCCC2)c(-c2ccc3ccccc3c2)c1 [Compound 568, 3-[4-cyclopentylmethyloxy-3-hydroxy-5-(naphthalen-2-yl)phenyl]propionic acid] | – | ≥ 50
Cc1cc(CCC(=O)O)cc(-c2ccc3ccccc3c2)c1OC1CCCC1 [Compound 570, 3-[4-cyclopentyloxy-3-methyl-5-(naphthalen-2-yl)phenyl]propionic acid] | – | ≥ 50
Cc1cc(CCC(=O)O)cc(-c2ccc3[nH]ccc3c2)c1OC1CCCC1 [Compound 571, 3-[4-cyclopentyloxy-3-(1H-indol-5-yl)-5-methylphenyl]propionic acid] | – | ≥ 50
Cc1n[nH]c2ccc(-c3cc(CCC(=O)O)ccc3OC3CCCC3)cc12 [Compound 574, 3-[4-cyclopentyloxy-3-(3-methyl-1H-indazol-5-yl)phenyl]propionic acid] | – | ≥ 50
Cc1nn(C)c2ccc(-c3cc(CCC(=O)O)ccc3OC3CCCC3)cc12 [Compound 576, 3-[4-cyclopentyloxy-3-(1,3-dimethyl-1H-indazol-5-yl)phenyl]propionic acid] | – | ≥ 50
COc1cc(CCC(=O)O)cc(-c2ccc3[nH]ccc3c2)c1OC1CCCC1 [Compound 578, 3-[4-cyclopentyloxy-3-(1H-indol-5-yl)-5-methoxyphenyl]propionic acid] | – | ≥ 50
COc1cc(CCC(=O)O)cc(-c2ccc3c(ccn3C)c2)c1OC1CCCC1 [Compound 580, 3-[4-cyclopentyloxy-3-methoxy-5-(1-methyl-1H-indol-5-yl)phenyl]propionic acid] | – | ≥ 50
CCn1ccc2cc(-c3cc(CCC(=O)O)cc(OC)c3OC3CCCC3)ccc21 [Compound 582, 3-[4-cyclopentyloxy-3-(1-ethyl-1H-indol-5-yl)-5-methoxyphenyl]propionic acid] | – | ≥ 50
Cc1cc2cc(-c3cc(CCC(=O)O)ccc3OCC3CCCC3)ccc2[nH]1 [Compound 584, 3-[4-cyclopentylmethyloxy-3-(2-methyl-1H-indol-5-yl)phenyl]propionic acid] | – | ≥ 50
CNc1cc(CCC(=O)O)cc(-c2ccc3c(cnn3C)c2)c1OC1Cc2ccccc2C1 [Compound 587, 3-[4-(indan-2-yloxy)-3-(N-methylamino)-5-(1-methyl-1H-indazol-5-yl)phenyl]propionic acid] | – | ≥ 50
CCCOc1ccc(CCC(=O)O)cc1-c1ccc2[nH]ccc2c1 [Compound 588, 3-[4-n-propyloxy-3-(1H-indol-5-yl)phenyl]propionic acid] | – | ≥ 50
